# Results taken from US10864192B2, “Compositions and methods for inhibiting brain trauma-induced neurodegeneration and related conditions” (priority 2016, dated 2020).
# How the values were obtained:
# SH-SY5Y cells [1] = test: Cell proliferation of SH-SY5Y cells (MTS assay); assay type: cell-based, human; conditions: 30 uM, 24 hr
# Method: SHSYSY cells were exposed for 24 hr to 30 uM concentration of (−)- and (+)-phenserine. After 24 hr cell proliferation was determined by MTS assay. *P,0.05, **p,0.01, and ***p,0.001 compared to control samples without drug.
# SH-SY5Y neuronal cells = test: Phenserine plus anti-inflammatory drug, oxidative stress and trophic effects in SH-SY5Y cells (MTS assay)
# Method: Human SH-SY5Y neuronal cells were seeded in 96-well plates at a density of 1×10^5 cells per well and allowed to grow for 24 hr. […] […] At 18 hr thereafter a MTS assay was performed per the manufacturers protocol (Abcam, Cambridge, Mass.) to measure cell viability.
# For example, instead of aspirin (as shown in FIG. 3A), an NSAID, naproxen, was used under the same experimental conditions at concentrations in FIGS. 3B-3D.
# [2] = system: APP/PS1 AD transgenic (Tg) male mice; test: Concussive mTBI in APP/PS1 AD Tg mice, immunohistochemistry 72 hr post injury; assay type: in vivo, mouse; conditions: 72 hr post TBI
# Source text: To study this in a model for prevention of progression of TBI pathologies into AD with resulting neuronal cell dysfunction and death, together with neuroinflammation, we used already ongoing, aged (10 to 12 month old) APP/PS1 AD transgenic (Tg) male mice were challenged with mTBI (concussive 30 g weight drop), followed by similar (−)-phenserine or vehicle post-treatment.
# To similarly cross-validate this in the more complex model of aged (10 to 12 month old) APP/PS1 AD Tg male mice, animals were challenged with mTBI (concussive 30 g weight drop) followed by (−)-phenserine or vehicle post-treatment. […] Likewise, co-localization of proinflammatory TNF-α was elevated within IBA1+ microglia across brain regions in AD Tg APP/PS1 mice with and without mTBI, and this trend was mitigated by (−)-phenserine post treatment in mTBI challenged animals (FIG. 23).
# (−)-Phenserine mitigates losses in synaptic integrity in wild and Tg mice subjected to weight drop injury. To evaluate whether mTBI-induced elevations in markers of cell loss (FJC) and neuroinflammation (TNF-α and IBA1+) are allied with a loss of synaptic integrity (which associates with cognitive loss (Wakade et al., 2010)), post- and pre-synaptic protein markers of synaptic integrity (post-synaptic density-95 (PSD-95) and synaptophysin, respectively) were immunohistochemically stained and quantified in control (w/o head injury) and mTBI challenged mice post-treated with vehicle or (−)-phenserine. […] These declines were mitigated by post treatment with (−)-phenserine. An alike trend was evident in mTBI challenged APP/PS1 AD Tg mice, and these reductions in post- and presynaptic proteins were similarly mitigated by post-treatment with (−)-phenserine (FIG. 25)
# SH-SY5Y cells [3] = test: H2O2-induced oxidative stress in SH-SY5Y cells (MTS assay); assay type: cell-based, human; conditions: phenserine 10 and 30 μM, 100 μM H2O2, 24 hr
# [4] = system: human peripheral blood mononuclear cells (PBMCs); test: PHA-induced cytokine production in human PBMCs; assay type: cell-based; conditions: phenserine 100 nM to 10 μM, 24 hr, PHA 3 μg/mL
# Source text: The detection limit for these assays is <1 pg/mL for IL-1beta and <3 pg/mL for IL-10. The intra- and inter-assay CV was <10%. All results are expressed in picograms per milliliter.
# [5] = Plasma concentrations of phenserine and its metabolites in human plasma; assay type: in vivo
# Method: The relationship between pharmacokinetic and pharmacodynamics evaluated in FIG. 15 was evaluated in aged volunteers. A total of 32 subjects (60-80 years of age, 11 males/21 females) were screened and enrolled. All participants provided informed consent, the conduct of the study were approved and overseen by the local Review IRB.
# For pharmacokinetic (blood concentrations of primary drug and select metabolites) a dose […] additionally was evaluated.
# These were centrifuged within 15 min of collection, and stored in a freezer at −70° C. freezer in marked polypropylene tubes until analysis. Phenserine levels were quantified by liquid chromatography/mass spectrometry (LC/MS/MS). In brief, analyses were undertaken on Perkin-Elmer (PE, Norwalk, USA) high performance liquid chromatographic (HPLC) instrumentation. Compound separation was performed on a Phenomenex LUNA C18 column (5 μM, 2.0 mm×150 mm; Torrance, USA), with a Phenomenex guard column (2 mm×30 mm). The mobile phase was 60% acetonitrile (HPLC grade) plus 40% ammonium acetate (v/v) with a flow rate of 0.4 mL/min. […] Thereafter, 2 mL of tert-butyl methyl ether was added and the sample was mixed and flash frozen. The organic layer was decanted, dried under a stream of nitrogen and reconstituted into 250 μL of mobile phase. Of this, a 60 μL sample was then injected into the HPLC.
# [6] = in vivo
# [7] = Tolerability of immediate release phenserine in patients; assay type: in vivo, human; conditions: immediate release dose of 20 mg
# [8] = target: acetylcholinesterase (AChE) (Homo sapiens (Human), UniProt P22303); test: RBC AChE inhibition after oral phenserine in humans; assay type: in vivo; conditions: 15 mg immediate release dose, TMax (1 hr)
# Method: For pharmacodynamics AChE inhibition analyses: erythrocyte AChE levels were evaluated in whole blood samples by using methods known in the art. Briefly, duplicate samples of freshly collected whole blood were analyzed. Cholinesterase activity, U/L, was detected at 37° C. using a differential pH procedure on a Eurochem CL-10 (Rome, Italy). The time-course of enzyme inhibition was determined for each subject by expressing each mean post-phenserine administration AChE concentration as a fraction of the mean pre-administration resting level of AChE within the same individual. This value was then subtracted from 1 and multiplied by 100% to provide percent AchE inhibition.
# [9] = 5 mg/kg BID, hippocampus and lateral cortex
# Sequence of acetylcholinesterase (AChE) (P22303 32-574 with tags or gaps limits assumed): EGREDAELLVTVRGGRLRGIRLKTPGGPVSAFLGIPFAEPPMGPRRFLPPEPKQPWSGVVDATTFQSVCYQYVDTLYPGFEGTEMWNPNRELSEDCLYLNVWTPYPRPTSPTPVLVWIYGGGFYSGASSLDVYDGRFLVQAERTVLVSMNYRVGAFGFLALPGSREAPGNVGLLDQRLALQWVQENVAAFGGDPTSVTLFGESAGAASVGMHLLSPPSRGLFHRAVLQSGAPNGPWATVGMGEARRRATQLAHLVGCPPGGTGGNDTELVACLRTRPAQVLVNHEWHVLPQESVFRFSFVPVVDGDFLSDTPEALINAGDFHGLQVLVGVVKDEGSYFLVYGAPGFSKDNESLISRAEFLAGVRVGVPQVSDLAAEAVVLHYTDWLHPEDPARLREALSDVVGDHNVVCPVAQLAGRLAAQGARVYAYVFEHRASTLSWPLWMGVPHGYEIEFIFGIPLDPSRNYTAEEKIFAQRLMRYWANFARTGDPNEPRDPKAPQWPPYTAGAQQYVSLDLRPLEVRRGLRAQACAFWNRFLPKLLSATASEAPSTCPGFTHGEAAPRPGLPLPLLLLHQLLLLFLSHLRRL
compound,measurement,setting,value
"CN1CC[C@@]2(C)c3cc(OC(=O)Nc4ccccc4)ccc3N(C)[C@@H]12 [phenserine, (−)-phenylcarbamoyleseroline]",cell proliferation (neurotrophic actions),SH-SY5Y cells [1],increasing cellular proliferation
same,oxidative stress-induced cellular death (cell viability),"SH-SY5Y neuronal cells; ASA 10^−5 M, (−)-Phen 10^−7 M, 10^−6 M, H2O2 50 μM, 18 hr",no activity
same,loss in cell viability following oxidative stress,"SH-SY5Y neuronal cells; H2O2 300 μM, phenserine 100 nM, naproxen 10 to 1000 nM",does not statistically mitigate
same,neurotrophic effect (cell survival),"SH-SY5Y neuronal cells; phenserine 10 nM, naproxen 100 nM",no neurotrophic action
same,mTBI-induced activation of microglia (IBA1+ cells),[2]; [9],mitigated
same,mTBI-induced neurodegeneration (Fluoro-Jade C+ cells),[2]; [9],counteracted
same,mTBI-induced reductions in synaptophysin and PSD-95,[2],mitigated
same,mTBI-induced elevations in TNF-α within microglia (co-localized TNF-α and IBA1+ cells),[2]; hippocampus and lateral cortex,mitigated
same,H2O2-mediated neuronal toxicity (cell viability),SH-SY5Y cells [3],significantly ameliorated
same,PHA-induced anti-inflammatory IL-10 levels,[4],without impacting
same,PHA-induced elevation in pro-inflammatory IL-1β levels,[4],substantially mitigated
same,Average Plasma Concentrations,[5]; Hour 1,3.02 ng/mL
same,Average Plasma Concentrations,[5]; Hour 2,2.09 ng/mL
same,Average Plasma Concentrations,[5]; Hour 3,1.08 ng/mL
same,Average Plasma Concentrations,[5]; Hour 4,0.31 ng/mL
same,Brain:Plasma Partitioning,[6],6.8-10:1
same,brain:blood partition,[6],approx. 8:1
same,negative consequences in patients,[7],"negative consequences (e.g., vomiting, diarrhea, nausea, etc.) have been observed"
same,AChE inhibition in RBCs,[8],34%
